Assay [1] has as its system Phosphatidylinositol 4,5-bisphosphate 3-kinase catalytic subunit alpha isoform (Homo sapiens), P42336 [H1047L]. As to conditions: at 10 µM.
Assay [2] concerns the target Mitogen-activated protein kinase 1 (Homo sapiens, UniProt P28482). As to conditions: at 10 µM.
Assay [3] has as its target Dual specificity mitogen-activated protein kinase kinase 1 (Homo sapiens, UniProt Q02750). The assay can be described thus: Selectivity interaction (KinomeScan (DiscoverX)) EUB0000607a MAP2K1. As to conditions: at 10 µM.
Assay [4] concerns the target T1, Mitogen-activated protein kinase kinase kinase 3 (Homo sapiens) (UniProt Q99759).
T1 sequence (whole entry): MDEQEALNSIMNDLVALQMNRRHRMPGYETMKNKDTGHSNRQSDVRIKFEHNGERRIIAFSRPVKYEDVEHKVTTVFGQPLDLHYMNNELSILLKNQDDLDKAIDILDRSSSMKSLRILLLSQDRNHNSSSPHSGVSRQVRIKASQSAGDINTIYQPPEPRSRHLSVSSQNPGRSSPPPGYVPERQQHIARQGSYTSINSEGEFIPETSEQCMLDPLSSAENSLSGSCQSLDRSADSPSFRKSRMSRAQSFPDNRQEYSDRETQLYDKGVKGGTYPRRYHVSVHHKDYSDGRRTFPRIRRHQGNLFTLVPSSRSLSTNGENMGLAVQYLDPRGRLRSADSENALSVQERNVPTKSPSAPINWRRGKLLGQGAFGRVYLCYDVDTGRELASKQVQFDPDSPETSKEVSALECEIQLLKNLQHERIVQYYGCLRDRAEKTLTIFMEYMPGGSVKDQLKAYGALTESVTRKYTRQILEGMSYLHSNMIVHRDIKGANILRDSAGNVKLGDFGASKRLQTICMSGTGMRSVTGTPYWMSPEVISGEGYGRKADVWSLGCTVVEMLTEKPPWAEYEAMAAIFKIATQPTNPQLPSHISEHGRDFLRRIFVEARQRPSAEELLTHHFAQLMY
Kind of assay: Selectivity interaction (KinomeScan (DiscoverX)) EUB0000607a MAP3K3. As to conditions: at 10 µM.

Assay [5] concerns Tyrosine-protein kinase ABL1 (Homo sapiens), P00519 [M351T]. As to conditions: at 10 µM.
The target of assay [6] is T2, Mitogen-activated protein kinase 12 (Homo sapiens) (UniProt P53778).
T2 sequence (whole entry): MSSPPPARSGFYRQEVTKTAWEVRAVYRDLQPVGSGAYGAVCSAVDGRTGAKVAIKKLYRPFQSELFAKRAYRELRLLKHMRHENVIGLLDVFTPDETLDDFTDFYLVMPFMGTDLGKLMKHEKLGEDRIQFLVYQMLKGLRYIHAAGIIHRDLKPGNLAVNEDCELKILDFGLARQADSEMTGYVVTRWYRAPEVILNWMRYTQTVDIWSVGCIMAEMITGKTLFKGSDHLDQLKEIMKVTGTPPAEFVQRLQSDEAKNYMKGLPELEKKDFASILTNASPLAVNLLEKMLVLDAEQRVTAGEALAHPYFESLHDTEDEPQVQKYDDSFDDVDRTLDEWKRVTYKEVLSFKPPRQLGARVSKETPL
The assay can be described thus: Selectivity interaction (ActivX KiNativ screen (kinase selectivity in THP-1 cell lysates)) EUB0000639a MAPK12. It counts as subcellular. As to conditions: lysate.

Assay [7] has as its target Receptor tyrosine-protein kinase erbB-2 (Homo sapiens, UniProt P04626). The assay can be described thus: Selectivity interaction (Ambit KINOMEscan and KiNATiv profiling in Jurkat cells) EUB0000090b ERBB2. It counts as cell-based. The note with it: at 1 µM.
Assay [8] has as its target T3, Casein kinase I isoform alpha-like (Homo sapiens) (UniProt Q8N752).
T3 sequence (whole entry): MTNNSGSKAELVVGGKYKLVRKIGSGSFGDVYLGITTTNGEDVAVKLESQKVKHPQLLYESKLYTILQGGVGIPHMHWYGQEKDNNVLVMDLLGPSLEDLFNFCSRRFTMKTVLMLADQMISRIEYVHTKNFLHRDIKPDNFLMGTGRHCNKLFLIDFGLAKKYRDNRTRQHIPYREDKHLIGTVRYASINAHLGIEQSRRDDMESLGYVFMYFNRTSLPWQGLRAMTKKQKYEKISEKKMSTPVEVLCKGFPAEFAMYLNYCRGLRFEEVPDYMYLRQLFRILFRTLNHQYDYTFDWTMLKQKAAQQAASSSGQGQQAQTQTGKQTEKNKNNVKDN
The assay can be described thus: Selectivity interaction (Ambit KINOMEscan and KiNATiv profiling in Jurkat cells) EUB0000090b CSNK1A1L. It counts as cell-based. As to conditions: at 1 µM.

For assay [9], the target named is Protein kinase C eta type (Homo sapiens) (UniProt P24723). Kind of assay: Selectivity interaction (Upstate Kinase Profiler service (Millipore)) EUB0000056c PRKCH. The note with it: at 1 µM.
Sequence of Protein kinase C eta type (Homo sapiens) (P24723 whole entry): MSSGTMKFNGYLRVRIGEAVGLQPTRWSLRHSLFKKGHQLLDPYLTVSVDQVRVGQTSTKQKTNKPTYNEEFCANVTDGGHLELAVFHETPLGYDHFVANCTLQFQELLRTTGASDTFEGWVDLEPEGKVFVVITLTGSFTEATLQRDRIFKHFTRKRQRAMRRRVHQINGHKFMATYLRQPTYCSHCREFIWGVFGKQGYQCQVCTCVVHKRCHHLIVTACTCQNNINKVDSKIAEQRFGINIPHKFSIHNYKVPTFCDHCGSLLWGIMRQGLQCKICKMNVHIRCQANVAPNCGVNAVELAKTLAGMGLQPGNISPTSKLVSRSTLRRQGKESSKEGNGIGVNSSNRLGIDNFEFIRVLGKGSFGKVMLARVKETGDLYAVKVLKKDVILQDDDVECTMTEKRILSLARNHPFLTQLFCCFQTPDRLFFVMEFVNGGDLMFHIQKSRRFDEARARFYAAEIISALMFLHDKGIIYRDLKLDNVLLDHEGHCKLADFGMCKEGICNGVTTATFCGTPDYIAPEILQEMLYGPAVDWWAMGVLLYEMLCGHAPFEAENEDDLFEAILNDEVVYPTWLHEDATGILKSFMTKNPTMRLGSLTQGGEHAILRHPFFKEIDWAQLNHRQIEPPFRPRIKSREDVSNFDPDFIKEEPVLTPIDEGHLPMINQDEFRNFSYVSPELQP
The target of assay [10] is Ephrin type-A receptor 7 (Homo sapiens) (UniProt Q15375). Kind of assay: Selectivity interaction (KinomeScan (DiscoverX)) EUB0000092b EPHA7. As to conditions: at 10 µM.
Sequence of Ephrin type-A receptor 7 (Homo sapiens) (Q15375 28-998 limits assumed): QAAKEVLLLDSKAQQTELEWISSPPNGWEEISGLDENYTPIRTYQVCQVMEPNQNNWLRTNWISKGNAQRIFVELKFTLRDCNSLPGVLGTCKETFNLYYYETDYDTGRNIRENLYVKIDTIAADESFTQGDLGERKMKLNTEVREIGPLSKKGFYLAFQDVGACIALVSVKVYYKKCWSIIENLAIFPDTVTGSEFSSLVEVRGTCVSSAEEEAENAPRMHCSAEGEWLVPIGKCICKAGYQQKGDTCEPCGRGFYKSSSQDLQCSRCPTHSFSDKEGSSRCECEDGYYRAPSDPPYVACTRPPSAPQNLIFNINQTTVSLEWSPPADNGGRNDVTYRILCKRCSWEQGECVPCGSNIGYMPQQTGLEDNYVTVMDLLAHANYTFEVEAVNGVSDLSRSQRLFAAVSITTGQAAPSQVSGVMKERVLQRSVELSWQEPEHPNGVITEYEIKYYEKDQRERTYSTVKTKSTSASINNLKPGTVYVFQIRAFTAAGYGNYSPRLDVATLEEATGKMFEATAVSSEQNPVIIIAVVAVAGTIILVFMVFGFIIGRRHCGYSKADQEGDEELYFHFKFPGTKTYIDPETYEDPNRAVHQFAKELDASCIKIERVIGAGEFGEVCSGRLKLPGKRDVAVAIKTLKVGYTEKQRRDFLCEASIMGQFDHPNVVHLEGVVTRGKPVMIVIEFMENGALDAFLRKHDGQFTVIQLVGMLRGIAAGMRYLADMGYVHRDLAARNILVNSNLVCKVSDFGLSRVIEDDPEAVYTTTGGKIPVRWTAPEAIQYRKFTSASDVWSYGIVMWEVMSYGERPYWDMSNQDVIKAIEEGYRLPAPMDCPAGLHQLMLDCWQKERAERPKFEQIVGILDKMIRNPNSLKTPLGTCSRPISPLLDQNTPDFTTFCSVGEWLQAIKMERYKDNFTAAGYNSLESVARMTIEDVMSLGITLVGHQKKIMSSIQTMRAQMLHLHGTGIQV
The target in assay [11] is T4, Beta-adrenergic receptor kinase 1 (Homo sapiens) (UniProt P25098).
T4 sequence (whole entry): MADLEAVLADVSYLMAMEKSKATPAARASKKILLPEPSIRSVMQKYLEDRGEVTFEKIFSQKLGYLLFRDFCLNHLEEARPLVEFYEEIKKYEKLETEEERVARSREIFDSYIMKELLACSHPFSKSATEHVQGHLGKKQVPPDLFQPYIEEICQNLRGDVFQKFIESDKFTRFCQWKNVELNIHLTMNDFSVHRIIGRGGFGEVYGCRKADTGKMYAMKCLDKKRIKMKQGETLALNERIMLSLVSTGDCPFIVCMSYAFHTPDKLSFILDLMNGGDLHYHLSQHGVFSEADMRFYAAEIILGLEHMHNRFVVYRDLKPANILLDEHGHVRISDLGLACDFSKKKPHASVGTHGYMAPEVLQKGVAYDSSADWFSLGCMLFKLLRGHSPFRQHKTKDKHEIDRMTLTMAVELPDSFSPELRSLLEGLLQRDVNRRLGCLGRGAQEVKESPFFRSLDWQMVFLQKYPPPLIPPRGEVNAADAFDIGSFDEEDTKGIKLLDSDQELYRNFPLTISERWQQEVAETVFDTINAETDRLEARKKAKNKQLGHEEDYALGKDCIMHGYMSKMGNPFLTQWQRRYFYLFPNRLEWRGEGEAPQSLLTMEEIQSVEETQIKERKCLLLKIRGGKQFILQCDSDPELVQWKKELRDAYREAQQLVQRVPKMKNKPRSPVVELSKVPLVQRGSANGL
The assay can be described thus: Selectivity interaction (KinomeScan (DiscoverX)) EUB0001079a ADRBK1. As to conditions: at 1 µM.

Sequence of Receptor tyrosine-protein kinase erbB-2 (P04626 whole entry, canonical isoform): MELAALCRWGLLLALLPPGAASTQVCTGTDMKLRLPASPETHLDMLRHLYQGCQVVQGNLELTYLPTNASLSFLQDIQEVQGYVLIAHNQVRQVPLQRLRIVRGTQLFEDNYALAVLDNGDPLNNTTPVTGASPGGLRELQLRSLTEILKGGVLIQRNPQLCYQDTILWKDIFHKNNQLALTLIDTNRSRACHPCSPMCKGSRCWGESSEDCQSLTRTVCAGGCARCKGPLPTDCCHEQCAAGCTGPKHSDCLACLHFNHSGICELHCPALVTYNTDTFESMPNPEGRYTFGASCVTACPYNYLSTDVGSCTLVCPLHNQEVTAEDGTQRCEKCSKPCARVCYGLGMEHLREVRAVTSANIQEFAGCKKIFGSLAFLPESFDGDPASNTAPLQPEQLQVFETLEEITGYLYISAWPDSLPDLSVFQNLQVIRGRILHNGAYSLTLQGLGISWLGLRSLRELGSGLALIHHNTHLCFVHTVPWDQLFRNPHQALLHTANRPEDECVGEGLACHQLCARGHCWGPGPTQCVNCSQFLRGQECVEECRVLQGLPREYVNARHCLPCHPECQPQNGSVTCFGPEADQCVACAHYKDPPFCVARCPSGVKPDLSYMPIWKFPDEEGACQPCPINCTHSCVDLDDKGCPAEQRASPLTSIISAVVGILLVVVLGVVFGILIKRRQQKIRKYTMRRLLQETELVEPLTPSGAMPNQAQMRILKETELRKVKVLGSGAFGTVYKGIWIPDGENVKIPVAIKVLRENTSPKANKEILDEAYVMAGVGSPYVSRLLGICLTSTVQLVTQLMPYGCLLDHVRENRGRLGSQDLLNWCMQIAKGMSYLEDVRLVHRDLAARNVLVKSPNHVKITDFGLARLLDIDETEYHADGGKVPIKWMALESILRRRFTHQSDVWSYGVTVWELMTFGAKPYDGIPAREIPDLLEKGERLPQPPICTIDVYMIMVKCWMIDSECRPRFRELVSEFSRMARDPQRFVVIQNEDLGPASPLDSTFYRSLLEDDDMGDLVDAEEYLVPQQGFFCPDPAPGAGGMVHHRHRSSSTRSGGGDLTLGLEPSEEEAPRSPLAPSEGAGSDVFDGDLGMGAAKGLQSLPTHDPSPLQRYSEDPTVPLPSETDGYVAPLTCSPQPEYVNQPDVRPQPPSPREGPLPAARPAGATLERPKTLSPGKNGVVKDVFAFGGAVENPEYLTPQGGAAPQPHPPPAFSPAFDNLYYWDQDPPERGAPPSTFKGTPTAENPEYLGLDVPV
Sequence of Phosphatidylinositol 4,5-bisphosphate 3-kinase catalytic subunit alpha isoform (Homo sapiens), P42336 [H1047L] (P42336 whole entry H1047L, canonical isoform): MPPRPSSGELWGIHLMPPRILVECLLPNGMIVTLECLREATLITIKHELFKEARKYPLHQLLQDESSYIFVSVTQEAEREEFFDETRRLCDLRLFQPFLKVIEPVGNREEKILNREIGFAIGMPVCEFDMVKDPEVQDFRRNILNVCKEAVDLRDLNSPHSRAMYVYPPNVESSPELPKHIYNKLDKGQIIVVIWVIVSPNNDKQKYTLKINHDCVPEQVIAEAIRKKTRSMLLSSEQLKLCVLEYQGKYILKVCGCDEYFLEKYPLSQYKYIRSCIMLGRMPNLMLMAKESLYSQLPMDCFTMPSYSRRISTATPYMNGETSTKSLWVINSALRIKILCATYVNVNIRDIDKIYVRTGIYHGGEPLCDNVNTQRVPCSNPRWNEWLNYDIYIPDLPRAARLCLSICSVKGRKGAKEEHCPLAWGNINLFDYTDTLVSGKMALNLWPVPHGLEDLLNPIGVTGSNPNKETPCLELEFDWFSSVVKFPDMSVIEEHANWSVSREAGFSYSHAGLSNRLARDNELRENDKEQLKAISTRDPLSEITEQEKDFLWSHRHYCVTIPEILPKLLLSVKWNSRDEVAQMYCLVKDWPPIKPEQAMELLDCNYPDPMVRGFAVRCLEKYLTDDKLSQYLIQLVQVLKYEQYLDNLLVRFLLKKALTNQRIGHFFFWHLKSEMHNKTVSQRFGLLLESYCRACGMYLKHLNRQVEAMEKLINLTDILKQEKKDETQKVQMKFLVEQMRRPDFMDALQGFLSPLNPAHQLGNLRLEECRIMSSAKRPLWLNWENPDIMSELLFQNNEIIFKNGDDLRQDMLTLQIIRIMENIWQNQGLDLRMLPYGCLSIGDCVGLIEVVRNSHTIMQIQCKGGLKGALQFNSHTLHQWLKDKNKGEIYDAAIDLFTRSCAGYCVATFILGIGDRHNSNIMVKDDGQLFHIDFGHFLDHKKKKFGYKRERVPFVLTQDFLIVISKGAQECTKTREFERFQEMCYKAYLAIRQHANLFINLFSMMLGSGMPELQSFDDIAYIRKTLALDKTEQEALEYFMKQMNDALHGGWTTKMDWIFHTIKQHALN
Sequence of Dual specificity mitogen-activated protein kinase kinase 1 (Q02750 whole entry): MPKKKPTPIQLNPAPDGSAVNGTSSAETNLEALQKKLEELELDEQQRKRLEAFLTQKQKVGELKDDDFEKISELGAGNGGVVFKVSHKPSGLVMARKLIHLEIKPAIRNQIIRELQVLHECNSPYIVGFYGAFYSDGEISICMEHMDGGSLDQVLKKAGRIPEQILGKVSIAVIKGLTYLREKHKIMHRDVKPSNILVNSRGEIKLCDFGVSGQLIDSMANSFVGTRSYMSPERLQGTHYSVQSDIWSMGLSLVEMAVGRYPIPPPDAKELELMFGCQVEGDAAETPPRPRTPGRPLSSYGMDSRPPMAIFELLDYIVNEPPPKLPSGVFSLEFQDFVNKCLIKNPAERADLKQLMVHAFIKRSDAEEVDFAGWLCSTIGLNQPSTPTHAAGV
Sequence of Mitogen-activated protein kinase 1 (P28482 whole entry): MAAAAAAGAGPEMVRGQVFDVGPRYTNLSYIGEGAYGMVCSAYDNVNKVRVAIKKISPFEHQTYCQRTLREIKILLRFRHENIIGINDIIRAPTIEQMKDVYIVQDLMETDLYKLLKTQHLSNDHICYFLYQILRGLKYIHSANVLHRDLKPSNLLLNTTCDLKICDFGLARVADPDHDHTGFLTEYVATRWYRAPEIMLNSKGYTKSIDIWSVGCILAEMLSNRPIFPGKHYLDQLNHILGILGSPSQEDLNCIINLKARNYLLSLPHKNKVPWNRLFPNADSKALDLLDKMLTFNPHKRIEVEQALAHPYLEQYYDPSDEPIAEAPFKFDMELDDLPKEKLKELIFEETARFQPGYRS

Turning to `COCC(=O)NC/C=C/c1ccc2ncnc(Nc3ccc(Oc4ccc(C)nc4)c(C)c3)c2c1` [CP-724714], in assay [1], the % of control is 100%.
`CCN(CC)CCCCNc1ncc2cc(-c3cc(OC)cc(OC)c3)c(NC(=O)NC(C)(C)C)nc2n1`: the % of control in [2] was found to be 100%.
Turning to `CNC(=O)Nc1ccc(-c2nc(N3CC4CCC(C3)O4)c3cnn(C4CCC5(CC4)OCCO5)c3n2)cc1`, the % of control in assay [3] and in assay [4] was 100% in each case.
`Cc1cc([C@@H](C)Nc2ccccc2C(=O)O)c2nc(N3CCOCC3)cc(=O)n2c1` [AZD-6482] displayed a % of control in [5] of 94%.
As to `CC[C@@H]1[C@H](F)C(=O)N[C@@H]1COc1nccc2cc(C(N)=O)c(OC)cc12` [ZIMLOVISERTIB], the % of inhibition in assay [6] (at 0.01 µM) was -4.4%; in [6] (at 0.04 µM), 6%; in [6] (at 0.2 µM), -3.6%; in assay [6] (at 1 µM), 7.4%; in assay [6] (at 5 µM) it was 20.3%.
For `CN(C)C/C=C/C(=O)Nc1ccc(C(=O)N2CCCC(Nc3ncc(Cl)c(-c4c[nH]c5ccccc45)n3)C2)cc1` (stereo not given), the % of control in [7] came out at 96%; in assay [8], 65%.
As for `Cc1ccc(-c2ccc3c(ccc4sc5c(c43)NC[C@@H](C)NC5=O)n2)cn1`, the % of inhibition in assay [9] worked out at 6%.
In [10], `CCC(=O)N1CCN(c2ccc(-n3c(=O)ccc4cnc5ccc(-c6cnc7ccccc7c6)cc5c43)cc2C(F)(F)F)CC1` came in with a % of control of 98%.
Turning to `Nc1cnc(N2CCc3cc(S(=O)(=O)Nc4c(F)cc(Cl)cc4F)cc(N4CCCC4=O)c32)nc1` [TP-020n], the % of control in [11] is 100%.

The record behind these values is ChEMBL document CHEMBL5465560, “Selectivity Literature for EUbOPEN Chemogenomic Library” (2024).
